Reference: patent US20070202547A1, “Methods For Detecting Substances Which Bind To The Amyloid Precursor Protein Or Beta Amyloid Fragments, And Binding Compounds” (priority 2004, published 2007)
pIC50: −log10 of the molar value.

Legend:
Format in all cases: biochemical
gamma-secretase = gamma-secretase (Homo sapiens, UniProt P05067); assay: Gamma-secretase cleavage of CTFβ substrate (HeLa cell membrane extract); details: Aβ40 detection with 6E-10/G2-10, read-out: CTFβ CLEAVAGE AT POSITION 40
Protocol: Accordingly, Examples 1-4 were tested for their ability to inhibit gamma-secretase cleavage of both a full-length CTFβ substrate, as described in Li, 2000, Proc. Natl Acad Sci. 97:6138-6143. The assays were carried out as follows:
Inhibition of CTFβ Cleavage
• 10 μL 10× protease inhibitor cocktail (Roche, cat # 1836153) • 25 μL 4× Buffer (50 mM PIPES pH7.0, 150 mM KCl, 5 mM MgCl2, 5 mM CaCl2) • 2 μL 10% CHAPSO • 5 μL HeLa cell membrane extract characterized for gamma-secretase activity • 7 μL 25 μM bacterially expressed CTFβ • 51 μL water • 1 μL compound in DMSO The reactions were incubated at 37° C. for 150 min and quenched with 25 μL 5× RIPA buffer (750mM NaCl, 5% NP-40, 2.5% DOC, 0.5% SDS, 250 mM Tris H8.0). Detection:
Gamma-secretase cleavage of the CTFβ substrate was assessed by incubating 50 μL of the reaction with 25 μL of 4 μg/mL biotinylated antibody 6E-10 which is specific for the N-terminal region of Aβ, and 25 μL of 1.5 μg/mL of a ruthinylated antibody G2-10, which is specific to the C-terminal region of Aβ40. The C-terminal region is present only after gamma secretase cleavage of Aβ. The antibodies were allowed to bind overnight at room temperature. The following day, 25 μL of 80 μg/mL streptavidin-coated Dynabeads (M-280) were added to each reaction, allowed to bind for 30 minutes, and quenched with 275 μL IGEN assay buffer. Quantification of the gamma-secretase cleavage products was carried out using an Origen Analyzer.

BACE2 [1] = target: T1, BACE2 (Homo sapiens, UniProt P05067, A673V/D672E/K670N/M671F); assay: BACE2 cleavage of APP at the beta-secretase cleavage site (ALPHA); details: MBP-biotinylated APP fusion protein with NFEV site, pH 4.5, 30 minutes
T1 construct: IC50, BACE2 cleavage of APP at the beta-secretase cleavage site; other: MBP-biotinylated APP fusion protein with NFEV s; activity against BACE2 cleavage of APP at the beta-secretase position; other: result in words; biotin label
Protocol: (§1) The effect of Examples 1-4 on cleavage of APP at the beta-secretase cleavage site was assayed as follows:
(§2) • 25 μL 0.2 M Sodium Acetate, pH 4.5 • 10 μL 10× protease inhibitor cocktail (Roche, cat # 1836153) • 10 μL Bovine Serum Albumin (1 mg/mL solution) • 4 μL 5% CHAPS • 1 μL EDTA (150 mM, pH 4.5) • 2 μL DF • 4 μL MBP(Maltose binding protein)—biotininylated APP fusion protein containing the NFEV BACE cleavage site (bacterially expressed, 10 μM solution) • 1 μL DMSO or compound dissolved in DMSO • 2 μL BACE2 (CHO cell expressed protein, 250 nM) • 41 μL distilled water The reactions were incubated at 37° C. for 30 minutes, and were then quenched with 4 μL 1 M TrisHCl, pH 8.0. Detection of MBP Biotin APP(NF) Cleavage Product using ALPHA ALPHA Assay Mix was Prepared as Follows: • 20 μL Streptavidin Donor Beads (from AlphaScreen General IgG (Protein A) Detection Kit Perkin Elmer Life Sciences); 10,000 pts (Part Number 6760617M) • 20 μL Protein A Acceptor beads (from AlphaScreen General IgG (Protein A) Detection Kit Perkin Elmer Life Sciences); 10,000 pts (Part Number 6760617M) • 3.7 μL Affinity purified anti-NF antibody (203 μg/mL) (described in WO 02/094985) • 4.5 mL 0.1% BSA in PBS • 4 μL of quenched reaction mixture was combined with 46 μL of the assay mix. The reactions were incubated at room temperature overnight and read using the ALPHAQuest plate reader.

BACE2 [2] = target: T2, BACE2 (Homo sapiens, UniProt P05067, K670N/M671F/D672E/A673V); assay: as above; details: result in words
T2 construct: IC50, BACE2 cleavage of APP at the beta-secretase cleavage site; other: MBP-biotinylated APP fusion protein with NFEV s; activity against BACE2 cleavage of APP at the beta-secretase position; other: result in words; biotin label
Protocol: as §1, §2

BACE2 [3] = assay: BACE2 cleavage of EV amyloid / Aβ (mass spectrometric analysis); details: 100 μM, result in words
Protocol: The effect of inhibition of BACE 2 cleavage of EV amyloid was assayed using a protocol described in Shi et al, 2003, J. Biol. Chem., 278:21286-21294. The results of assaying Examples 1-4 at 100 μM are shown below: […]

BACE1 [4] = target: BACE1 (Homo sapiens, UniProt P56817); assay: BACE1 cleavage of full-length APP or beta-site P5/P5' peptide (FIG. 3); details: relative to DMSO-treated
Description: (§3) FIG. 3(A) depicts inhibition by Statine-Val, which is a known inhibitor of BACE cleavage of both APP and APP fragments, including the beta-site P5/P5′ peptide fragment. […] depicts inhibition by Example 4. The graphs depict inhibition of cleavage of a full-length APP substrate (∘) or the beta-site P5/P5 fragment. (□). Enzymatic activity is shown relative to DMSO-treated BACE cleavage.

BACE1 [5] = assay: as above; details: relative to DMSO-treated
Description: as §3

Chain of BACE1 (Homo sapiens, UniProt P56817) (P56817 46-501): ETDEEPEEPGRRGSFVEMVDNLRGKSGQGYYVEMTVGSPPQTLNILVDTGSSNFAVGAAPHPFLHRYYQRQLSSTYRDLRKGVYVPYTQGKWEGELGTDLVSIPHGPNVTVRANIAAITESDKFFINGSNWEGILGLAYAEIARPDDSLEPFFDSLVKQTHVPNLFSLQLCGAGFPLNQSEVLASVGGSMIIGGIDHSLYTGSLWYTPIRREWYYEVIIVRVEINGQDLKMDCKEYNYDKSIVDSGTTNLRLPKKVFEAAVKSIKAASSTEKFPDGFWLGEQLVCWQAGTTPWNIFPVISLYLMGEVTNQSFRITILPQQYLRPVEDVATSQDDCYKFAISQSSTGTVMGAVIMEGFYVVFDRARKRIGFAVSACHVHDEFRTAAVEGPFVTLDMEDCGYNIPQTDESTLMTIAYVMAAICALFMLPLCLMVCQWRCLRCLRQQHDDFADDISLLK

Row | pIC50 (gamma-secretase) | pIC50 (BACE2 [1]) | inhibition of BACE1 cleavage of beta-site P5/P5' peptide fragment (BACE1 [4]) | Structure (SMILES) | activity against BACE2 cleavage of APP at the beta-secretase position (BACE2 [2]) | effect on BACE2 cleavage at all Aβ sites (BACE2 [3]; FIG. 1) | effect on BACE2 cleavage at position 34 (BACE2 [3]) | effect on BACE2 cleavage at positions 19 and 20 (BACE2 [3]) | inhibition of BACE1 cleavage of full-length APP substrate (BACE1 [5])
1 | 4.31 | ~4.00 | – | O=C(O)COc1ccc2c(c1)CC(CCc1ccccc1)O2 (stereo not drawn) [Example 3] | – | – | – | – | –
2 | – | 4.70 | inhibits cleavage of APP only | Oc1cc2c(cc1CCCOc1ccc(-c3nnn[nH]3)cc1Cl)OC(CCc1ccccc1)C2 (stereo not drawn) [Example 4, 6-{3-[2-chloro-4-(1H-tetrazol-5-yl)phenoxy]propyl}-2-(2-phenylethyl)-2,3-dihydro-1benzofuran-5-oI] | capable of inhibiting BACE2 cleavage of APP at the beta-secretase position with similar effectiveness to their inhibition of BACE1 cleavage at the same site | suppressed cleavage at all Aβ sites | blocked cleavage at position 34 | enhanced cleavage of Aβ at positions 19 and 20 | inhibits cleavage of APP only
